Results as given in patent US9696323B2, “Biomarkers for chagas disease related cardiomyopathy” (THE BOARD OF REGENTS OF THE UNIVERSITY OF TEXAS SYSTEM, priority 2013, dated 2017).

Tested on: T. cruzi
Assay: 2D-GE plasma proteome profile (differential protein expression) of T. cruzi-infected rats treated with PBN and/or BZ
Format: in vivo, rat
Settings: for expression of inflammation-associated plasma proteins: APOH
From the text: Certain embodiments include biomarkers identified in a previous study. Parasite persistence and oxidative damage in the heart are known to be of pathological significance during Chagas disease (Zacks et al., (2005) An Acad Bras Cienc, 77, 695-715; Gupta et al., (2009) Interdiscip Perspect Infect Dis, 2009, 190354). […] In the previous study the inventors identified 92 proteins that were differentially expressed or oxidized in chagasic plasma. Functional analysis allocated a majority of these proteins to inflammation/immunity and lipid metabolism categories, and to molecular pathways associated with cardiovascular dysfunction, e.g., myocardial infarction, hypertrophy, and fibrosis, and pulmonary embolism and hypertension. Some proteins in chagasic rats treated with PBN and/or BZ were allocated to curative pathways (immune regulation and cardiac remodeling). The 2D-GE results were validated by Western blotting. […] Increased plasma levels of GSN, MYL2, and VIM were directly correlated with the severity of cardiac disease in human chagasic patients. […] These findings have utility in diagnosing disease severity and designing suitable therapy for management of human chagasic patients.
Ingenuity Pathway Analysis (IPA) is a highly curated and comprehensive software used for the integration of proteins into networks and pathways with biological meaning (Thomas and Bonchev, (2010). Hum Genomics, 4, 353-360). Network analysis of the plasma proteome profile of chagasic rats identified four major sub-networks linked to host response to T. cruzi infection and disease development (Table V). The maximal numbers of the differentially expressed plasma proteins (19 proteins) in chagasic rats were associated with antigen presentation and inflammatory response category (Table V) and indicators of persistent inflammation, known to be of pathological significance in Chagas disease (Dhiman et al., (2009) Clinical and Vaccine Immunology, 16, 660-666; Tanowitz et al., (2009) Prog Cardiovasc Dis, 51, 524-539; Junqueira et al., (2010) Expert Rev Mol Med, 12, e29). Following functional analysis of the inflammation-associated proteins, 12 proteins (APOA1, APOE, C3, CFB, CFH, FGB, GSN, KRT10, PLG, SCG2, SERPINA1, and SERPINC1) were identified as being involved in immune cell trafficking and cell movement of leukocytes, granulocytes, phagocytes, neutrophils, and dendritic and antigen presenting cells. Some of the differentially expressed proteins in inflammation category were associated with activation (APOE, C3, CFH, GC and PLG), chemotaxis (C3, SCG2, SERPINA1, SERPINC1), and infiltration of leukocytes (APOA1, APOE, C3, PLG, KRT10) and neutrophils (C3, CFB, CFH, PLG). Up regulation of APOE, APOA1, APOH, GC and PLG in chagasic plasma was indicative of activation, binding and accumulation of macrophages in the disease state. Of the 19 differentially expressed inflammation-associated proteins, 11 proteins (APOE, C3, CFB, CFH, GSN, KRT10, SCG2, SERPINA1, SERPINC1, GC, and PLG) were carbonylated in chagasic plasma. […] Other proteins (APOE, C3, KRT3, and SCG2) were exposed to oxidation due to T. cruzi-induced, acute oxidative stress, but were normalized in expression and oxidation during the chronic phase.
Seventeen of the differentially expressed proteins in chagasic plasma, i.e., AFM, C4BPA, CACNA1D, DLGAP2, GC, KNG1, MUG1, MYLPF, MY05A, MY05B, PRPH, PZP, RAI14, and SCG2, were allotted to the lipid metabolism/molecular transport/small molecule biochemistry category (Table V) and functionally linked by IPA network analysis to lipid, fatty acid, and carbohydrate metabolism. A majority of the proteins in this category, i.e., ALB, APOA1, APOA4, APOE, APOH, C3, GC, GNAQ, MY05A, PLG, SCD2, SERPINA1, SERPINC1 and VIM, were linked to the synthesis, metabolism, transport, and modification of lipids and fatty acids, and to uptake and release or efflux of lipids, eicosanoids, and cholesterol. […]

[1] = plasma, RAP group (acute infection)

CC(C)(C)/[N+]([O-])=C/c1ccccc1 [PBN]
expression of inflammation-associated plasma proteins (acutely infected rats, APOE, CFH, PLG and SCG2): normalized or regulated the expression | expression of inflammation-associated plasma proteins (chronically infected rats, GC, GSN and PLG): normalized or regulated the expression | expression level of CFB, GSN, C3, and SERPINC1 (infected rats): partly regulated | Spot# 12, 180 Average Normalized Density × 100,000 [1]: 21.47 | Spot# 34 Average Normalized Density × 100,000 [1]: 0.37 | Spot# 37, 593 Average Normalized Density × 100,000 [1]: 14.38 | Spot# 49, 673 Average Normalized Density × 100,000 [1]: 19.12 | Spot# 52, 54, 302 Average Normalized Density × 100,000 [1]: 9.80 | Spot# 53, 225 Average Normalized Density × 100,000 [1]: 8.76 | Spot# 72 Average Normalized Density × 100,000 [1]: 18.10 | Spot# 73, 705, 787 Average Normalized Density × 100,000 [1]: 46.94 | Spot# 77 Average Normalized Density × 100,000 [1]: 16.3 | Spot# 88 Average Normalized Density × 100,000 [1]: 74.61 | Spot# 94 Average Normalized Density × 100,000 [1]: 1.84 | Spot# 115, 123 Average Normalized Density × 100,000 [1]: 22.27 | Spot# 149 Average Normalized Density × 100,000 [1]: 0.78 | Spot# 153 Average Normalized Density × 100,000 [1]: 27.07 | Spot# 177 Average Normalized Density × 100,000 [1]: 3.71 | Spot# 181 Average Normalized Density × 100,000 [1]: 3.99 | Spot# 184, 257, 328 Average Normalized Density × 100,000 [1]: 4.54 | Spot# 207, 555 Average Normalized Density × 100,000 [1]: 13.23 | Spot# 215 Average Normalized Density × 100,000 [1]: 1.73 | Spot# 266 Average Normalized Density × 100,000 [1]: 0.75 | Spot# 299 Average Normalized Density × 100,000 [1]: 1.92 | Spot# 315 Average Normalized Density × 100,000 [1]: 6.24 | Spot# 334 Average Normalized Density × 100,000 [1]: 0.61 | Spot# 341 Average Normalized Density × 100,000 [1]: 0.59 | Spot# 355, 359 Average Normalized Density × 100,000 [1]: 2.99 | Spot# 382, 385, 378, 572, 578, 595 Average Normalized Density × 100,000 [1]: 33.76 | Spot# 389 Average Normalized Density × 100,000 [1]: 37.55 | Spot# 430 Average Normalized Density × 100,000 [1]: 22.40 | Spot# 434, 678 Average Normalized Density × 100,000 [1]: 55.14 | Spot# 439 Average Normalized Density × 100,000 [1]: 4.04 | Spot# 452 Average Normalized Density × 100,000 [1]: 18.92 | Spot# 464 Average Normalized Density × 100,000 [1]: 3.89 | Spot# 479 Average Normalized Density × 100,000 [1]: 23.96 | Spot# 493 Average Normalized Density × 100,000 [1]: 9.82 | Spot# 515 Average Normalized Density × 100,000 [1]: 6.87 | Spot# 524 Average Normalized Density × 100,000 [1]: 53.74 | Spot# 551, 587, 908 Average Normalized Density × 100,000 [1]: 88.04 | Spot# 559 Average Normalized Density × 100,000 [1]: 24.39 | Spot# 571 Average Normalized Density × 100,000 [1]: 7.84 | Spot# 576, 620 Average Normalized Density × 100,000 [1]: 18.08 | Spot# 586, 614 Average Normalized Density × 100,000 [1]: 50.44 | Spot# 592 Average Normalized Density × 100,000 [1]: 15.61 | Spot# 604 Average Normalized Density × 100,000 [1]: 22.81 | Spot# 606 Average Normalized Density × 100,000 [1]: 9.60 | Spot# 627 Average Normalized Density × 100,000 [1]: 30.23 | Spot# 638 Average Normalized Density × 100,000 [1]: 4.42 | Spot# 649 Average Normalized Density × 100,000 [1]: 40.69 | Spot# 651 Average Normalized Density × 100,000 [1]: 94.03 | Spot# 655 Average Normalized Density × 100,000 [1]: 240.6 | Spot# 672 Average Normalized Density × 100,000 [1]: 7.34 | Spot# 676 Average Normalized Density × 100,000 [1]: 14.69 | Spot# 691 Average Normalized Density × 100,000 [1]: 49.99 | Spot# 715 Average Normalized Density × 100,000 [1]: 10.83 | Spot# 724 Average Normalized Density × 100,000 [1]: 1.72 | Spot# 728 Average Normalized Density × 100,000 [1]: 0.76 | Spot# 733 Average Normalized Density × 100,000 [1]: 2.24 | Spot# 740 Average Normalized Density × 100,000 [1]: 7.81 | Spot# 745 Average Normalized Density × 100,000 [1]: 4.51 | Spot# 749 Average Normalized Density × 100,000 [1]: 4.71 | Spot# 766 Average Normalized Density × 100,000 [1]: 3.20 | Spot# 779, 909 Average Normalized Density × 100,000 [1]: 5.45 | Spot# 796 Average Normalized Density × 100,000 [1]: 9.97 | Spot# 814 Average Normalized Density × 100,000 [1]: 0.60 | Spot# 817 Average Normalized Density × 100,000 [1]: 12.14 | Spot# 820, 1081 Average Normalized Density × 100,000 [1]: 4.59 | Spot# 827 Average Normalized Density × 100,000 [1]: 17.91 | Spot# 832 Average Normalized Density × 100,000 [1]: 6.23 | Spot# 860 Average Normalized Density × 100,000 [1]: 3.06 | Spot# 867 Average Normalized Density × 100,000 [1]: 2.56 | Spot# 881 Average Normalized Density × 100,000 [1]: 13.92 | Spot# 897 Average Normalized Density × 100,000 [1]: 4.82 | Spot# 900 Average Normalized Density × 100,000 [1]: 25.94 | Spot# 906 Average Normalized Density × 100,000 [1]: 49.40 | Spot# 966 Average Normalized Density × 100,000 [1]: 53.33
